The test addresses T1, human muscarinic acetylcholine M3 receptor (M3-ACh) (Homo sapiens, UniProt P20309).
T1 construct: expressed in transfected cells; host or cells: CHO-K1 (Chinese Hamster Ovary) cell membranes
Nature of the test: biochemical. In kind it is binding. Particulars: pIC50 (M3 Binding IC50 classes).

T1 sequence (P20309 whole entry): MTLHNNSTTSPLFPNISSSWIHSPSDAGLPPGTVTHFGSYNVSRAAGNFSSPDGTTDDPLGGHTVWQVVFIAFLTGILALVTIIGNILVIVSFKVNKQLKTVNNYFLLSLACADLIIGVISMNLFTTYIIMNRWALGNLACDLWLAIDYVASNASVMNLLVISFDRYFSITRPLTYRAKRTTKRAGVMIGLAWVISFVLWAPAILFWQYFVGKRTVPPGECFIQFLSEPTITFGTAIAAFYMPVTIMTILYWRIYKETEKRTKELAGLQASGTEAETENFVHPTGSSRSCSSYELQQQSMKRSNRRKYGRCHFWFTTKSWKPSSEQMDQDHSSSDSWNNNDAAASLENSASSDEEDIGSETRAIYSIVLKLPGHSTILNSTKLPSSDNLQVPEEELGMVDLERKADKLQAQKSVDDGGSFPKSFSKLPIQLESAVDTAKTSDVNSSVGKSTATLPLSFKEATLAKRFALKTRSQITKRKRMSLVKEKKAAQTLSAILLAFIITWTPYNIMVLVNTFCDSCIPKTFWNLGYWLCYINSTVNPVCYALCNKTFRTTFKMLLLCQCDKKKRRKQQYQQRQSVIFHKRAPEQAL

As for `Cc1cc(OCCC[N+]23CCC(CC2)[C@@H](OC(=O)C(C)(c2cccs2)N2CCCCC2)C3)cc(C)n1` (single isomer, unassigned) [Example 81], the IC50 (as a rule, the concentration that inhibits the measured activity by half) is 2 to 10 nM. Then `CC(C(=O)O[C@H]1C[N+]2(CCc3cccc(Cl)c3)CCC1CC2)(c1ccccc1)N1CCSCC1` (single isomer, unassigned) [Example 98], with less than 2 nM. Next, `CN(C(=O)C[N+]12CCC(CC1)[C@@H](OC(=O)C(C)(c1cccs1)N1CCCCC1)C2)c1cccc(F)c1` (single isomer, unassigned) [Example 109]: 2 to 10 nM; `CC(C(=O)O[C@H]1C[N+]2(CCc3cccc(Cl)c3)CCC1CC2)(c1cccs1)N1CCSCC1` (single isomer, unassigned) [Example 52]: less than 2 nM; `CC1(C)CN(C(C)(C(=O)O[C@H]2C[N+]3(CCCOc4ccccc4)CCC2CC3)c2ccc(Cl)cc2)C1` (single isomer, unassigned) [Example 46]: more than 10 nM.

In turn, `CC(C(=O)O[C@H]1C[N+]2(CCc3ccccc3)CCC1CC2)(c1ccccc1)N1CCSCC1` (single isomer, unassigned) [Example 103] returned an IC50 of less than 2 nM. `CC(C(=O)O[C@H]1C[N+]2(CC(=O)Nc3ccc(Cl)nn3)CCC1CC2)(c1cccs1)N1CCCCC1` (single isomer, unassigned) [Example 72]: the IC50 was less than 2 nM. Regarding `C[C@@](C(=O)O[C@H]1C[N+]2(CC[C@@H](O)c3ccccc3)CCC1CC2)(c1ccccc1)N1CCCCC1` [Example 39], the IC50 was less than 2 nM. Next, `C[C@@](C(=O)O[C@H]1C[N+]2(CC(=O)c3sccc3Cl)CCC1CC2)(c1ccccc1)N1CCCCC1` [Example 4, (3R)-1-[2-(3-Chloro-2-thienyl)-2-oxoethyl]-3-{[(2S)-2-phenyl-2-piperidin-1-ylpropanoyl]oxy}-1-azoniabicyclo[2.2.2]octane bromide]: 2 to 10 nM. Next, `CC(C(=O)O[C@H]1C[N+]2(CC(=O)Nc3ccon3)CCC1CC2)(c1ccccc1)N1CCCCCC1` (single isomer, unassigned) [Example 111]: 2 to 10 nM.

`CC(C(=O)O[C@H]1C[N+]2(CCc3ccccc3)CCC1CC2)(c1ccccc1)N1CCCCCC1` (single isomer, unassigned) [Example 93]: the IC50 was less than 2 nM. Then `CC(C(=O)O[C@H]1C[N+]2(CCCc3cccnc3)CCC1CC2)(c1ccccc1)N1CCSCC1` (single isomer, unassigned) [Example 106], with 2 to 10 nM. Next, `C[C@@](C(=O)O[C@H]1C[N+]2(CC(=O)Nc3ccc4ncnn4c3)CCC1CC2)(c1ccccc1)N1CCCCC1` [Example 13, (3R)-1-[2-Oxo-2-([1,2,4]triazolo[1,5-a]pyridin-6-ylamino)ethyl]-3-{[(2S)-2-phenyl-2-piperidin-1-ylpropanoyl]oxy}-1-azoniabicyclo[2.2.2]octane chloride]: less than 2 nM. As to `Cc1nc(-c2ccc(OCC[N+]34CCC(CC3)[C@@H](OC(=O)[C@](C)(c3ccccc3)N3CCCCC3)C4)cc2)no1` [Example 43, (3R)-1-{2-[4-(5-Methyl-1,2,4-oxadiazol-3-yl)phenoxy]ethyl}-3-{[(2S)-2-phenyl-2-piperidin-1-ylpropanoyl]oxy}-1-azoniabicyclo[2.2.2]octane bromide], the half-inhibitory concentration (IC50) was 2 to 10 nM. `CC(C(=O)O[C@H]1C[N+]2(CC(=O)Nc3cnccn3)CCC1CC2)(c1cccs1)N1CCSCC1` (single isomer, unassigned) [Example 54]: the IC50 was less than 2 nM. Then `Cc1nc(-c2ccccc2)c(NC(=O)C[N+]23CCC(CC2)[C@@H](OC(=O)[C@](C)(c2ccccc2)N2CCCCC2)C3)s1` [Example 18, (3R)-1-{2-[(2-Methyl-4-phenyl-1,3-thiazol-5-yl)amino]-2-oxoethyl}-3-{[(2S)-2-pheny1-2-piperidin-1-ylpropanoyl]oxy}-1-azoniabicyclo[2.2.2]octane chloride], with 2 to 10 nM; and `CC(C(=O)O[C@H]1C[N+]2(CCCc3ccccc3)CCC1CC2)(c1ccccc1)N1CCCCCC1` (single isomer, unassigned) [Example 94], with less than 2 nM.

Turning to `CC(C(=O)O[C@H]1C[N+]2(CC(=O)c3cccc(F)c3)CCC1CC2)(c1cccs1)N1CCCCC1` (single isomer, unassigned) [Example 67], the IC50 was less than 2 nM.

`CC(C(=O)O[C@H]1C[N+]2(CCc3cccc(Cl)c3)CCC1CC2)(c1ccccc1)N1CCCCCC1` (single isomer, unassigned) [Example 86] displayed an IC50 of less than 2 nM. Regarding `C[C@@](C(=O)O[C@H]1C[N+]2(CC(=O)c3cccc(Cl)c3)CCC1CC2)(c1ccccc1)N1CCCCC1` [Example 6, (3R)-1-[2-(3-Chlorophenyl)-2-oxoethyl]-3-{[(2S)-2-phenyl-2-piperidin-1-ylpropanoyl]oxy}-1-azoniabicyclo[2.2.2]octane bromide], the IC50 was less than 2 nM. On to `CC(C(=O)O[C@H]1C[N+]2(CC(=O)Nc3noc4ccccc34)CCC1CC2)(c1cccs1)N1CCCCC1` (single isomer, unassigned) [Example 77], for which the IC50 was less than 2 nM. Then `CC(C(=O)O[C@H]1C[N+]2(CCc3cccc(Cl)c3)CCC1CC2)(c1ccccc1)N1CCOCC1` (single isomer, unassigned) [Example 79], with less than 2 nM; and `CC(C(=O)O[C@H]1C[N+]2(CCCOc3ccccc3)CCC1CC2)(c1cccs1)N1CCSCC1` (single isomer, unassigned) [Example 49], with less than 2 nM; and `CC(C(=O)O[C@H]1C[N+]2(CC(=O)Nc3cccnn3)CCC1CC2)(c1ccccc1)N1CCSCC1` (single isomer, unassigned) [Example 101], with less than 2 nM.

The record behind these values is patent publication US20100113510A1 (priority 2006, published 2010).
